# Data: ChEMBL document CHEMBL5233278, “Recent Advances in the Medicinal Chemistry of Farnesoid X Receptor” (J Med Chem, 2021)
# How the values were obtained:
# [1] = target: Bile acid receptor (Homo sapiens) (UniProt Q96RI1); assay: Agonist activity at FXR in human HepG2 cells coexpressing BSEP at 0.3 uM relative to control; conditions: filed as agonist
# [2] = target: Bile acid receptor (Homo sapiens) (UniProt Q96RI1); assay: Agonist activity at FXR in human HepG2 cells at 3 uM relative to control; conditions: filed as agonist
# [3] = target: Voltage-gated inwardly rectifying potassium channel KCNH2 (Homo sapiens, UniProt Q12809); assay: Inhibition of hERG; assay type: toxicity
# Sequence of Voltage-gated inwardly rectifying potassium channel KCNH2 (Q12809 whole entry): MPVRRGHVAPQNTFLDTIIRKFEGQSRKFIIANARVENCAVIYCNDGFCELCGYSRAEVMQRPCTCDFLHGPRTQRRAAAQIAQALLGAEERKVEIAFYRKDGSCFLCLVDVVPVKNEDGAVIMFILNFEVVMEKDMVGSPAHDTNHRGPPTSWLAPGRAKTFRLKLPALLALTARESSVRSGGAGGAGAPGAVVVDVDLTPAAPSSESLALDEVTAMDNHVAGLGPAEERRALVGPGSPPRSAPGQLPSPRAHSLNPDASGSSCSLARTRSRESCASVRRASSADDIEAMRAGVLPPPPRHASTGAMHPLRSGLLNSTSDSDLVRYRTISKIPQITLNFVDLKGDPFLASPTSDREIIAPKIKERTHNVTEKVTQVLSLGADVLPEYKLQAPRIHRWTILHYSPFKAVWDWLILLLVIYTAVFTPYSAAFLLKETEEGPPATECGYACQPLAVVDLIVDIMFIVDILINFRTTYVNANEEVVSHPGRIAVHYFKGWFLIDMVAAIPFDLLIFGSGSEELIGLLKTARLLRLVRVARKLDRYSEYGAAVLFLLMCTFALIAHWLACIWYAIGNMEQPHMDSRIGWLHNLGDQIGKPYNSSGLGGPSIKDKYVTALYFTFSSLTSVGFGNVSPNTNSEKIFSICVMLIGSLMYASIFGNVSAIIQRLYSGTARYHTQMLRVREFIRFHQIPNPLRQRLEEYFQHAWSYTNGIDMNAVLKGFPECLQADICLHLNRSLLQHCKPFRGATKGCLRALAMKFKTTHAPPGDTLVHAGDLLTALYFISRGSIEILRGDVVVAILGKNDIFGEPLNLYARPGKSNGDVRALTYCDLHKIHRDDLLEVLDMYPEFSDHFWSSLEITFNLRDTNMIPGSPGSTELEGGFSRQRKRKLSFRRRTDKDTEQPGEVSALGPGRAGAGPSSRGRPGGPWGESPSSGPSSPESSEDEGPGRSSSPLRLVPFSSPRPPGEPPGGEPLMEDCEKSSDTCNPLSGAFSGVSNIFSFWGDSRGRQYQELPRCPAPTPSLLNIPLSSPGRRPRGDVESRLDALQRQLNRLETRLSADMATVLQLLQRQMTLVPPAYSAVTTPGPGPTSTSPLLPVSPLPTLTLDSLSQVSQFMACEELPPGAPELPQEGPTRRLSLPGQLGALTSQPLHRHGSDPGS
# Bile acid receptor [4] = target: T1, Bile acid receptor (Homo sapiens, UniProt Q96RI1); assay: Agonist activity at FXR in HEK293T cells by steady-glo luciferase assay; assay type: cell-based
# T1 sequence (Q96RI1 whole entry): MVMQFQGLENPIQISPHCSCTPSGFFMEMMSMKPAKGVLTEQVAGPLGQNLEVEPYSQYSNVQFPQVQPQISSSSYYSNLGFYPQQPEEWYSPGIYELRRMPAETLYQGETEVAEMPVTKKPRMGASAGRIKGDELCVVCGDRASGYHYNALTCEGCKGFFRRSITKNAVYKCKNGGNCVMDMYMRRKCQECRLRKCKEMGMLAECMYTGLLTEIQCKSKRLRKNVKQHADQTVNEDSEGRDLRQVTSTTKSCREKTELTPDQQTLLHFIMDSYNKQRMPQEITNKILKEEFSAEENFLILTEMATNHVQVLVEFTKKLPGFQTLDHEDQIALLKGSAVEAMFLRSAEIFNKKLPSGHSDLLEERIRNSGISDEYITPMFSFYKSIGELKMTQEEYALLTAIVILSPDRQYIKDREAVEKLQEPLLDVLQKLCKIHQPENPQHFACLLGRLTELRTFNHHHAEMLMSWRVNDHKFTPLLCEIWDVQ
# Bile acid receptor [5] = target: T1, Bile acid receptor; assay: Agonist activity at human FXR
# Bile acid receptor [6] = target: T1, Bile acid receptor; assay: Agonist activity at human FXR incubated for 24 hrs by luciferase reporter assay
# Bile acid receptor [7] = target: T1, Bile acid receptor; assay: Agonist activity at FXR (unknown origin)
# [8] = Metabolic stability in human liver microsomes assessed as half life in presence of NADPH incubated up to 60 mins by LC-MS/MS analysis; assay type: ADME, Microsome
# [9] = target: T2, Bifunctional epoxide hydrolase 2 (Homo sapiens, UniProt P34913); assay: Inhibition of sEH (unknown origin)
# T2 sequence (P34913 whole entry): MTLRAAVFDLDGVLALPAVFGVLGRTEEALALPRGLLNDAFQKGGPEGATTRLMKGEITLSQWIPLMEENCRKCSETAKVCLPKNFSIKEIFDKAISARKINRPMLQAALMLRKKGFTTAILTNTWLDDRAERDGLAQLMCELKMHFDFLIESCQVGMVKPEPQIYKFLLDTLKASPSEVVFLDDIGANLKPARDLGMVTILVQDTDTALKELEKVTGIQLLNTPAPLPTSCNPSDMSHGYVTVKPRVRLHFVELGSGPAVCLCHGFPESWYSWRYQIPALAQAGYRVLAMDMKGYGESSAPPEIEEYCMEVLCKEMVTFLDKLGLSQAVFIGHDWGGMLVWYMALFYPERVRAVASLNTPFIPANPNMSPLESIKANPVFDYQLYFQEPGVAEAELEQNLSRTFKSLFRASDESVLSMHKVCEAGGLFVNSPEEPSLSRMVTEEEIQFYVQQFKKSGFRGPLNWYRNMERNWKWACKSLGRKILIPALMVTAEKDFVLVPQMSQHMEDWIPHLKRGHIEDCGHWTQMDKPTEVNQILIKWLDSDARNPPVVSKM
# Bile acid receptor [10] = target: T1, Bile acid receptor; assay: Agonist activity at FXR in human HeLa cells incubated for 24 hrs by Dual-Glo luciferase assay; assay type: cell-based; conditions: hela
# [11] = target: T3, Bile acid receptor (Homo sapiens) (UniProt Q96RI1); assay: Agonist activity at human FXR expressed in CHO cells assessed as maximum efficacy incubated for 22 hrs by luciferase reporter assay relative to control; assay type: cell-based
# T3 sequence (whole entry): T1 sequence (Q96RI1 whole entry)
# Bile acid receptor [12] = target: T1, Bile acid receptor; assay: Agonist activity at human GST-tagged FXR incubated for 1 hrs by alphascreen assay
# Bile acid receptor [13] = target: T1, Bile acid receptor; assay: Agonist activity at FXR in human HeLa cells by Dual-Glo luciferase assay; assay type: cell-based
# Bile acid receptor [14] = target: T1, Bile acid receptor; assay: Agonist activity at FXR (unknown origin) incubated for 180 mins by TR-FRET assay
# [15] = target: T3, Bile acid receptor (Homo sapiens); assay: Agonist activity at FXR in HEK293 cells assessed as maximum efficacy relative to control; assay type: cell-based; conditions: filed as agonist
# [16] = Cmax in Sprague-Dawley rat serum at 5 mg/kg, po measured up to 24 hrs by LC-MS-MS analysis; assay type: ADME, organism-based; set-up: dose 5 mg/kg, time < 24 hrs, route po
# [17] = AUC(0 to 24 hrs) in Sprague-Dawley rat serum at 5 mg/kg, po measured up to 24 hrs by LC-MS-MS analysis; assay type: ADME, organism-based; set-up: dose 5 mg/kg, time < 24 hrs, route po
# [18] = AUC(0 to 24 hrs) in Sprague-Dawley rat liver at 5 mg/kg, po measured up to 24 hrs by LC-MS-MS analysis; assay type: ADME, organism-based; set-up: dose 5 mg/kg, time < 24 hrs, route po; conditions: in vivo
# [19] = AUC(0 to 24 hrs) in Sprague-Dawley rat serum at 1 mg/kg, iv measured up to 24 hrs by LC-MS-MS analysis; assay type: ADME, organism-based; set-up: dose 1 mg/kg, time < 24 hrs, route iv
# [20] = Cmax in Sprague-Dawley rat serum at 1 mg/kg, iv measured up to 24 hrs by LC-MS-MS analysis; assay type: ADME, organism-based; set-up: time < 24 hrs, dose 1 mg/kg, route iv
# [21] = Cmax in Sprague-Dawley rat liver at 5 mg/kg, po measured up to 24 hrs by LC-MS-MS analysis; assay type: ADME, organism-based; set-up: time < 24 hrs, dose 5 mg/kg, route po
# Bile acid receptor [22] = target: T1, Bile acid receptor; assay: Agonist activity at FXR in HEK293T cells by lanthascreen TR-FRET assay; assay type: cell-based
# Mus musculus [23] = assay: Anti-NASH activity in nonalcoholic steatohepatitis C57BL/6 mouse model assessed as decrease in level of serum ALT 10 mg/kg, iv relative to control; assay type: functional; set-up: scale not given: the % may be the effect or the level left
# Mus musculus [24] = assay: Anti-NASH activity in nonalcoholic steatohepatitis C57BL/6 mouse model assessed as decrease in level of serum AST 10 mg/kg, iv relative to control; assay type: functional; set-up: scale not given: the % may be the effect or the level left
# [25] = Oral bioavailability in Sprague-Dawley rat at 5 mg/kg administered via gavage by LC-MS/MS analysis; assay type: ADME, organism-based; conditions: in vivo
structure (smiles),measurement,setting,value
O=C(O)c1cc(F)c2nc(N3C[C@@H]4CC[C@H]3C[C@@H]4OCc3c(-c4ccccc4OC(F)(F)F)noc3C3CC3)sc2c1,Activity,[1],84%
same,Activity,[2],125%
Cc1cc(OCc2c(-c3c(Cl)cccc3Cl)noc2C2CC2)ccc1C1=NOC(c2ccc(C(=O)O)nc2)C1 (stereo unspecified),IC50,[3],> 30 µM
same,EC50,Bile acid receptor [4],5 nM
CC(C)Oc1cc(C(=O)NS(=O)(=O)N2CCCCC2)cc2sc(O[C@@H]3CO[C@H]4[C@H]3OC[C@H]4OCc3c(-c4c(Cl)cccc4Cl)noc3C3CC3)nc12,EC50,Bile acid receptor [5],< 30 nM
CC[C@H]1[C@@H](O)[C@@H]2[C@H](CC[C@]3(C)[C@@H]([C@H](C)CCNC(=O)NS(=O)(=O)c4ccc(C)cc4)CC[C@@H]23)[C@@]2(C)CC[C@@H](O)[C@H](F)[C@@H]12,EC50,Bile acid receptor [6],18 nM
O=C(O)c1ccc([C@@H]2C[C@H]2c2ccc(OCc3c(-c4c(Cl)cccc4Cl)noc3C3CC3)cc2Cl)cc1,Activity,[1],60%
same,Activity,[2],100%
CCn1nc(C(=O)O)cc1C1CC(c2ccc(OCc3c(-c4c(Cl)cccc4Cl)noc3C3CC3)cc2C)=NO1 (stereo unspecified),IC50,[3],> 30 µM
same,EC50,Bile acid receptor [4],23 nM
Cc1cc(OCc2c(-c3c(Cl)cccc3Cl)noc2C2CC2)ccc1C1=NOC(c2cc(C(=O)O)nn2C)C1 (stereo unspecified),IC50,[3],> 30 µM
same,EC50,Bile acid receptor [4],10 nM
COc1cccc(-c2ccc(NC(=O)C3=C(C(=O)O)CCC3)c(F)c2)c1 [VIDOFLUDIMUS],EC50,Bile acid receptor [7],450 nM
O=C(O)c1ccc2nc(N3CCC(OCc4c(-c5c(Cl)cccc5Cl)noc4C4CC4)C4CC43)sc2c1 (stereo unspecified),Activity,[1],64%
same,Activity,[2],125%
O=C(O)c1ccc(-c2csc(N3[C@@H]4CC[C@H]3C[C@@H](OCc3c(-c5ccccc5OC(F)(F)F)noc3C3CC3)C4)n2)cc1C(F)(F)F,half-life,[8],150 min
COc1cc(C(=O)O)ccc1Cn1ccc2ccc(NC(=O)c3ccc(C(C)(C)C)cc3)cc21,IC50,[9],1700 nM
same,EC50,Bile acid receptor [10],260 nM
COc1cc(Cl)cc(N(CC23CCC(c4ccc(OC)c(C#N)c4)(CC2)CC3)C(=O)c2ccncc2C)c1,Emax,[11],28%
O=C1CCc2cc(OCc3c(-c4c(Cl)cccc4Cl)noc3C3CC3)ccc2N1c1ncc(O)cc1F,EC50,Bile acid receptor [12],9 nM
O=C(O)c1cccc(NC(=O)c2ccc(Oc3ccccc3)cc2)c1,EC50,Bile acid receptor [13],10 nM
CC(C)Oc1cc(C(=O)O)cc2sc(O[C@@H]3CO[C@H]4[C@@H]3OC[C@H]4OCc3c(-c4ccccc4OC(F)(F)F)noc3C3CC3)nc12,EC50,Bile acid receptor [5],< 30 nM
O=C(O)c1cccc(NC(=O)c2ccc(OCCCCc3ccccc3)cc2)c1,EC50,Bile acid receptor [13],26 nM
CC[C@H]1[C@@H](O)[C@@H]2[C@H](CC[C@]3(C)[C@@H]([C@H](C)CCNC(=O)NS(=O)(=O)c4ccc(C(C)(C)C)cc4)CC[C@@H]23)[C@@]2(C)CC[C@@H](O)[C@H](F)[C@@H]12,EC50,Bile acid receptor [6],19 nM
Cc1cc(OCc2c(-c3c(Cl)cccc3Cl)noc2C2CC2)ccc1C1=NOC(c2cc(C(=O)O)ccn2)C1 (stereo unspecified),IC50,[3],> 30 µM
O=C(O)CNC(=O)c1ccc(N2CCC3(CC2)CC(OCc2c(-c4ccccc4OC(F)(F)F)noc2C2CC2)CO3)nc1 (stereo unspecified),EC50,Bile acid receptor [14],1.7 nM
CS(=O)(=O)NC(=O)c1ccc(N2CCC3(CC2)CC(OCc2c(-c4ccccc4OC(F)(F)F)noc2C2CC2)CO3)nc1 (stereo unspecified),EC50,Bile acid receptor [14],26.9 nM
O=S(O)c1cc(F)c2nc(N3[C@@H]4CC[C@H]3C[C@@H](OCc3c(-c5ccccc5OC(F)(F)F)noc3C3CC3)C4)sc2c1,EC50,Bile acid receptor [4],< 500 nM
O=C(O)c1ccc(-c2nc(N3[C@@H]4CC[C@H]3C[C@@H](OCc3c(-c5c(Cl)cccc5Cl)noc3C3CC3)C4)no2)cc1F,EC50,Bile acid receptor [7],< 50 nM
O=C(O)c1ccc(-c2csc(N3CCC(OCc4c(-c5c(Cl)cccc5Cl)noc4C4CC4)CC3)n2)cc1,Emax,[15],101%
same,Cmax,[16],252 ng/mL
same,AUC(0-t) at 24 h,[17],1180 ng·h/mL
same,AUC,[18],14971 ng·h/g
same,AUC(0-t) at 24 h,[19],2410 ng·h/mL
same,Cmax,[20],4340 ng/mL
same,EC50,Bile acid receptor [4],12 nM
same,Cmax,[21],3370 ng/g
O=C(O)c1ccc(-c2nc(N3[C@@H]4CC[C@H]3C[C@@H](OCc3c(-c5c(Cl)cccc5Cl)noc3C3CC3)C4)no2)cc1,EC50,Bile acid receptor [7],< 50 nM
O=C(O)c1ccc(N2C(=O)CCc3cc(OCc4c(-c5c(Cl)cccc5Cl)noc4C4CC4)ccc32)nc1,EC50,Bile acid receptor [12],20 nM
CCc1onc(-c2c(Cl)cccc2Cl)c1COc1ccc(C2(C)CC2c2ccc(C(=O)O)cc2)c(Cl)c1 (stereo unspecified),EC50,Bile acid receptor [22],< 100 nM
Cc1cc(OCc2c(-c3c(Cl)cccc3Cl)noc2C2CC2)ccc1C1=NOC(c2cc(C(=O)O)nn2C(C)C)C1 (stereo unspecified),IC50,[3],> 30 µM
Cc1cc(NS(=O)(=O)N2[C@@H]3CC[C@H]2C[C@@H](OCc2c(-c4c(Cl)cccc4Cl)noc2C2CC2)C3)ccc1C(=O)O,EC50,Bile acid receptor [7],< 50 nM
O=C(O)c1cc(F)c2nc(N3[C@@H]4CC[C@H]3C[C@@H](OCc3c(-c5c(Cl)cccc5Cl)noc3C3CC3)C4)sc2c1,EC50,Bile acid receptor [7],7.7 nM
CC(C)n1ncc(-c2c(Cl)cccc2Cl)c1COc1ccc(N(C)Cc2cccc(C(=O)O)c2)c(C(F)(F)F)c1,Activity,Mus musculus [23],63%
same,Activity,Mus musculus [24],59%
Cc1cc(OCc2c(-c3c(Cl)cccc3Cl)noc2C2CC2)ccc1C1=NOC(c2cccc(C(=O)O)c2)C1 (stereo unspecified),IC50,[3],> 30 µM
O=C(O)c1ccc2nc(N3C[C@@H]4C[C@H]3C[C@H]4OCc3c(-c4c(Cl)cccc4Cl)noc3C3CC3)sc2c1,Activity,[1],166%
same,Activity,[2],185%
O=C(O)c1ccc2c(c1)Oc1ccc(OCc3c(-c4ccccc4OC(F)(F)F)noc3C3CC3)nc1C1(CC1)C2,bioavailability,[25],71.3%
O=C(O)c1ccc2c(c1)CN(C(=O)N1[C@@H]3CC[C@H]1C[C@@H](OCc1c(-c4c(Cl)cccc4Cl)noc1C1CC1)C3)C2,EC50,Bile acid receptor [4],10 nM
CC(C)(C)c1ccc(C(=O)Nc2ccc3ccn(Cc4ccc(C(=O)O)cc4)c3c2)cc1,IC50,[9],2900 nM
same,EC50,Bile acid receptor [10],3500 nM
O=C(O)c1cccc(NC(=O)c2ccc(OCc3ccccc3)cc2)c1,EC50,Bile acid receptor [13],9.1 nM
C[C@H]1CC(OCc2c(-c3c(Cl)cccc3Cl)noc2C2CC2)C[C@H](C)N1c1nc2ccc(C(=O)O)cc2s1 (stereo partly specified),Activity,[1],100%
same,Activity,[2],88%
CC(C)Oc1cc(C(=O)NS(=O)(=O)N2CCCC2)cc2sc(O[C@@H]3CO[C@H]4[C@H]3OC[C@H]4OCc3c(-c4c(Cl)cccc4Cl)noc3C3CC3)nc12,EC50,Bile acid receptor [5],< 30 nM
